Experimental data reported in US20100216779A1 (GLAXOSMITHKLINE LLC, priority 2007, published 2010).

Columns and labels:
Type in all cases: cell-based
COLO205 (colon) = test: Inhibition of cell proliferation, CellTiter-Glo, COLO205; details: Homo sapiens, COLO 205, 72 h
Outline: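 Exponentially growing COLO205 cells in medium with 10% FBS were plated below 2000 cells/well at 37 °C, 5% CO2. Untreated wells served as controls.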

[1] = biological target: T1, human IGF-1R (NIH-3T3 cells over expressing human IGF-1R) (Homo sapiens, UniProt P08069); test: IGF-1R cellular autophosphorylation (DELFIA); details: IGF-1 stimulated
T1 construct: expressed in transfected cells; host or cells: NIH-3T3 (mouse fibroblasts)
T1 sequence (P08069 31-1367): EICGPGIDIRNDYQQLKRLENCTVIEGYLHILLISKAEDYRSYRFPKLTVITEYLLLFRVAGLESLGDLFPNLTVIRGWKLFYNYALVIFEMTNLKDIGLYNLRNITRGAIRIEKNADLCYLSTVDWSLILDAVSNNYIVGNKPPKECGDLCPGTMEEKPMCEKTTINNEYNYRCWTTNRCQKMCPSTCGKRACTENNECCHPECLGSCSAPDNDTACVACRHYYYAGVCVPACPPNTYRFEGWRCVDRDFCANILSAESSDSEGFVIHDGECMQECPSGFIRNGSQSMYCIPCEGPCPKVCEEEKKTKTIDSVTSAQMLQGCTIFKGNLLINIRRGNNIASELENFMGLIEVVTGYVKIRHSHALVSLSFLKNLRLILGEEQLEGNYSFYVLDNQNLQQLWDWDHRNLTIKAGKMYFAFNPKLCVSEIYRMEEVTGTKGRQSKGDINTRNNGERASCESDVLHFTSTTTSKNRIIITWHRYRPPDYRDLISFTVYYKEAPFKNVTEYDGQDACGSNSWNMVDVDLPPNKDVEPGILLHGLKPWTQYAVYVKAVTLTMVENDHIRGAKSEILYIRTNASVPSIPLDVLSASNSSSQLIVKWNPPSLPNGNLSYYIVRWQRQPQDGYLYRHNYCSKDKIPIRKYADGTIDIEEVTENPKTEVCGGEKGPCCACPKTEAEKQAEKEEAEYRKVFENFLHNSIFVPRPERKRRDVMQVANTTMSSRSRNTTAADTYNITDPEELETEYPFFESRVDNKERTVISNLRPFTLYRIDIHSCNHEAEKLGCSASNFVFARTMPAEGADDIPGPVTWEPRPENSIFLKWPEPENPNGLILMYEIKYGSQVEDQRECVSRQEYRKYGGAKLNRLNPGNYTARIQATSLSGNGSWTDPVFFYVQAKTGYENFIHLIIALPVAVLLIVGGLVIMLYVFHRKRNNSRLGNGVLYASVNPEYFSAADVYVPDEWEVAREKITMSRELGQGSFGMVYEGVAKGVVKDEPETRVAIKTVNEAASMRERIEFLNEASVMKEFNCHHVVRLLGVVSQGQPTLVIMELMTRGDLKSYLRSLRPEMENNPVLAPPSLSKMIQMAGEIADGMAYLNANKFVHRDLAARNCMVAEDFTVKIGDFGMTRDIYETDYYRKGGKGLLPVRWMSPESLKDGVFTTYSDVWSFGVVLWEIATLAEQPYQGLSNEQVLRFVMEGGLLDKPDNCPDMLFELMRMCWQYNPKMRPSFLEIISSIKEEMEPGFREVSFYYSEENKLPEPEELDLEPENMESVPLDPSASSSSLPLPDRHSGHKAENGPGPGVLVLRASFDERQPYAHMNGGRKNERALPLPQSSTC
Outline: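 Receptor-overexpressing NIH-3T3, 10% FBS, 37 °C; cpd 30 uM–1.5 nM × 2 h; stim IGF-1 30 ng/mL (IGF-1R) or insulin 3 ug/mL (IR), 15 min; lysate DELFIA, Eu anti-pTyr; % of stimulated signal.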

[2] = biological target: T2, IR (NIH-3T3 cells over expressing human IGF-1R or IR) (Homo sapiens, UniProt P06213); test: IR cellular autophosphorylation (DELFIA); details: NIH-3T3 cells over expressing IR, insulin stimulated
T2 construct: expressed in transfected cells; host or cells: NIH-3T3 (mouse fibroblasts)
T2 sequence (P06213 28-1382): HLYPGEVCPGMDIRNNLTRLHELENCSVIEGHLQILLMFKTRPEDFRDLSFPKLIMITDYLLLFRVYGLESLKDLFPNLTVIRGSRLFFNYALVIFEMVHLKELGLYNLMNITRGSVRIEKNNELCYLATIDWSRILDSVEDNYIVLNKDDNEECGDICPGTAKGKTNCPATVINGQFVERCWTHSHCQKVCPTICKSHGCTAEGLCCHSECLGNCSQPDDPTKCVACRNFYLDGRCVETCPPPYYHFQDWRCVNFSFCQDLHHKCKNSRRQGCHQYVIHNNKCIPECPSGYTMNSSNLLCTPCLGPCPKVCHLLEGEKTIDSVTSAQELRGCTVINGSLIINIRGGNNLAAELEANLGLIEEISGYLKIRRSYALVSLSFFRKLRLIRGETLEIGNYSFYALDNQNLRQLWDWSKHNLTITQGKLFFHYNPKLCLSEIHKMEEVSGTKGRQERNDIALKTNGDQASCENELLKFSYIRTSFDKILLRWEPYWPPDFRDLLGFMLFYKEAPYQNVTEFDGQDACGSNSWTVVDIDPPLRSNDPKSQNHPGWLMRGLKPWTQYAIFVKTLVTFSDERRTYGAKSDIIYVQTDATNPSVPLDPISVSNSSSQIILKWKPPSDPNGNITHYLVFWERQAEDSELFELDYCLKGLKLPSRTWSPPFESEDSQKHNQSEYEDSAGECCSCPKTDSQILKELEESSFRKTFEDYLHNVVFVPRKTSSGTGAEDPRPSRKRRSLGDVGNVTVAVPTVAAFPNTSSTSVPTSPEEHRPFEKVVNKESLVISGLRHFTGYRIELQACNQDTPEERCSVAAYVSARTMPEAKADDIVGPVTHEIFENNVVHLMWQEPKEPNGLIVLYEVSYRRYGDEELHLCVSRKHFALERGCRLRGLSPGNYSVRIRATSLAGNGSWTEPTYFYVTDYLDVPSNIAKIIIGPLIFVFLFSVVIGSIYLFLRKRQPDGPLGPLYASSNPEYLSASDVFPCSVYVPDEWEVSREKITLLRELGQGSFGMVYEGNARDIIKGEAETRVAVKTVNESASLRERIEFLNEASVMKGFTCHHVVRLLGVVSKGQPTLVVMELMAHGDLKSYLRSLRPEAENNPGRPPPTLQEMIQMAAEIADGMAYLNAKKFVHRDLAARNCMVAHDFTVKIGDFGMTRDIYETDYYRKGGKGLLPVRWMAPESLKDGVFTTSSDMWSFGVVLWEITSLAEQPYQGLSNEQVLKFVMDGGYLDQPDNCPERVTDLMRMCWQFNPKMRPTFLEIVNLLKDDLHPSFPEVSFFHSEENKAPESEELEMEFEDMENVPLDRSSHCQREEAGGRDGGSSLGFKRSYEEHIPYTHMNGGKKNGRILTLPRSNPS
Method: D. IGF-1R and IR Cellular Autophosphorylation (DELFIA)
NIH-3T3 cells over expressing human IGF-1R or IR were plated in 96-well plates (10,000 cells/well) in culture media containing 10% fetal bovine serum and incubated at 37° C. in a 5% CO2 incubator. Twenty four hours post-plating, cells were treated with different concentrations of test compounds ranging from 30 uM to 1.5 nM. Two hours after compound addition, cells were stimulated with either human IGF-1 (30 ng/mL) or insulin (3 ug/mL) for 15 minutes. Cell lysates are analyzed for phosphorylated receptors using dissociation enhanced lanthanide fluor-immuno assay (DELFIA) with anti-IGF-1R (MAB391, R&D Systems, Minneapolis, Minn.) or anti-IR[…](sc-711, Santa Cruz Biotechnology, Santa Cruz, Calif.) capture antibody and europium-labeled anti-pTyr antibody (Eu-N1 PT66, Perkin Elmer, Waltham, Mass.) for detection. The fluorescence signal for cells treated with compounds was expressed as percent relative to 100% stimulation (IGF-1 or insulin stimulated signal). […]

Row | SMILES | IC50 (COLO205 (colon)) | IC50 [1] | IC50 [2]
1 | CCOc1cc(N2CCN(CCS(C)(=O)=O)CC2)ccc1Nc1nccc(-c2c(-c3cccc(C(=O)Nc4c(F)cccc4F)c3)nc3ccccn23)n1 [Example 145, N-(2,6-difluorophenyl)-3-(3-{2-[(2-(ethyloxy)-4-{4-[2-(methylsulfonyl)ethyl]-1-piperazinyl}phenyl)amino]-4-pyrimidinyl}imidazo[1,2-a]pyridin-2-yl)benzamide] | 250 to 1000 nM | 100 to 500 nM | < 100 nM
2 | CCOc1cc(N2CCC(N3CCCCC3)CC2)ccc1Nc1nccc(-c2c(-c3cccc(C(=O)Nc4c(F)cccc4F)c3)nc3ccccn23)n1 [Example 34, 3-[3-(2-{[4-(1,4′-bipiperidin-1′-yl)-2-(ethyloxy)phenyl]amino}-4-pyrimidinyl)imidazo[1,2-a]pyridin-2-yl]-N-(2,6-difluorophenyl)benzamide] | 250 to 1000 nM | < 100 nM | 100 to 500 nM
3 | COc1cc(N2CCC(CN3CCN(C)CC3)CC2)ccc1Nc1nccc(-c2c(-c3cccc(C(=O)Nc4c(F)cccc4F)c3)nc3ccccn23)n1 [Example 37, N-(2,6-difluorophenyl)-3-(3-{2-[(2-(methyloxy)-4-{4-[(4-methyl-1-piperazinyl)methyl]-1-piperidinyl}phenyl)amino]-4-pyrimidinyl}imidazo[1,2-a]pyridin-2-yl)benzamide] | 250 to 1000 nM | < 100 nM | < 100 nM
4 | CCOc1ccc(-c2nc3ccccn3c2-c2ccnc(Nc3ccc(CCN4CCN(C)CC4)cc3OC)n2)cc1C(=O)Nc1c(F)cccc1F [Example 133, N-(2,6-difluorophenyl)-2-(ethyloxy)-5-{3-[2-({2-(methyloxy)-4-[2-(4-methyl-1-piperazinyl)ethyl]phenyl}amino)-4-pyrimidinyl]imidazo[1,2-a]pyridin-2-yl}benzamide] | 250 to 1000 nM | < 100 nM | < 100 nM
5 | COc1ccn2c(-c3ccnc(Nc4ccc(N5CCC(N6CCN(CCF)CC6)CC5)cc4OC)n3)c(-c3cccc(C(=O)Nc4c(F)cccc4F)c3)nc2c1 [Example 62, N-(2,6-difluorophenyl)-3-[3-(2-{[4-{4-[4-(2-fluoroethyl)-1-piperazinyl]-1-piperidinyl}-2-(methyloxy)phenyl]amino}-4-pyrimidinyl)-7-(methyloxy)imidazo[1,2-a]pyridin-2-yl]benzamide] | 250 to 1000 nM | < 100 nM | < 100 nM
6 | COc1cc([C@H]2CC[C@@H](N3CCN(CCS(C)(=O)=O)CC3)CC2)ccc1Nc1nccc(-c2c(-c3cccc(C(=O)Nc4c(F)cccc4F)c3)nc3ccccn23)n1 [Example 93, N-(2,6-difluorophenyl)-3-[3-(2-{[2-(methyloxy)-4-(cis-4-{4-[2-(methylsulfonyl)-ethyl]-1-piperazinyl}cyclohexyl)phenyl]amino]-4-pyrimidinyl)imidazo[1,2-a]pyridin-2-yl]benzamide] | 250 to 1000 nM | < 100 nM | < 100 nM
7 | COc1cc(N2CCN(CCS(C)(=O)=O)CC2)ccc1Nc1nccc(-c2c(-c3ccc(OC)c(C(=O)Nc4c(F)cccc4F)c3)nc3ccccn23)n1 [Example 135, N-(2,6-difluorophenyl)-2-(methyloxy)-5-(3-{2-[(2-(methyloxy)-4-{4-[2-(methylsulfonyl)ethyl]-1-piperazinyl}phenyl)amino]-4-pyrimidinyl}imidazo[1,2-a]pyridin-2-yl)benzamide] | 250 to 1000 nM | < 100 nM | < 100 nM
8 | COc1cc(N2CCN(CCS(C)(=O)=O)CC2)ccc1Nc1nccc(-c2c(-c3cccc(C(=O)Nc4c(F)cccc4F)c3)nc3ccccn23)n1 [Example 136, N-(2,6-difluorophenyl)-3-(3-{2-[(2-(methyloxy)-4-{4-[2-(methylsulfonyl)ethyl]-1-piperazinyl}phenyl)amino]-4-pyrimidinyl}imidazo[1,2-a]pyridin-2-yl)benzamide] | 250 to 1000 nM | < 100 nM | < 100 nM
9 | COc1cc(N2CCC(N3CCN(C)CC3)CC2)ccc1Nc1nccc(-c2c(-c3cccc(C(=O)Nc4c(F)cccc4F)c3)nc3ccccn23)n1 [Example 79, N-(2,6-difluorophenyl)-3-{3-[2-({2-(methyloxy)-4-[4-(4-methyl-1-piperazinyl)-1-piperidinyl]phenyl}amino)-4-pyrimidinyl]imidazo[1,2-a]pyridin-2-yl}benzamide] | < 250 nM | < 100 nM | < 100 nM
10 | COc1cc(N2CCC(N3CCCCC3)CC2)ccc1Nc1nccc(-c2c(-c3ccc(OC)c(C(=O)Nc4c(F)cccc4F)c3)nc3cc(C)ccn23)n1 [Example 4, 5-[3-(2-{[4-(1,4′-bipiperidin-1′-yl)-2-(methyloxy)phenyl]amino}-4-pyrimidinyl)-7-methylimidazo[1,2-a]pyridin-2-yl]-N-(2,6-difluorophenyl)-2-(methyloxy)benzamide] | 250 to 1000 nM | < 100 nM | < 100 nM
11 | O=C(Nc1c(F)cccc1F)c1cccc(-c2nc3ccccn3c2-c2ccnc(Nc3ccc(N4CCC(N5CCCCC5)CC4)cc3)n2)c1 [Example 82, 3-[3-(2-{[4-(1,4′-bipiperidin-1′-yl)phenyl]amino}-4-pyrimidinyl)imidazo[1,2-a]pyridin-2-yl]-N-(2,6-difluorophenyl)benzamide] | < 250 nM | < 100 nM | 100 to 500 nM
12 | COc1cc(C2CCN(CCF)CC2)ccc1Nc1nccc(-c2c(-c3ccc(OC)c(C(=O)Nc4c(F)cccc4F)c3)nc3ccccn23)n1 [Example 179, N-(2,6-difluorophenyl)-5-[3-(2-{[4-[1-(2-fluoroethyl)-4-piperidinyl}-2-(methyloxy)phenyl]-amino}-4-pyrimidinyl)imidazo[1,2-a]pyridin-2-yl]-2-(methyloxy)benzamide] | 250 to 1000 nM | < 100 nM | < 100 nM
13 | COc1cc(N2CCC[C@H](O)C2)ccc1Nc1nccc(-c2c(-c3cccc(C(=O)Nc4c(F)cccc4F)c3)nc3ccccn23)n1 [Example 169, N-(2,6-difluorophenyl)-3-[3-(2-{[4-[(3S)-3-hydroxy-1-piperidinyl]-2-(methyloxy)phenyl]amino}-4-pyrimidinyl)imidazo[1,2-a]pyridin-2-yl]benzamide] | 250 to 1000 nM | 100 to 500 nM | 100 to 500 nM
14 | COc1ccn2c(-c3ccnc(Nc4cccc(OCCN(C)C)c4)n3)c(-c3cccc(C(=O)Nc4ccc(F)cc4F)c3)nc2c1 [Example 16, N-(2,4-difluorophenyl)-3-[3-{2-[(3-{[2-(dimethylamino)ethyl]oxy}phenyl)amino]-4-pyrimidinyl}-7-(methyloxy)imidazo[1,2-a]pyridin-2-yl]benzamide] | 250 to 1000 nM | < 100 nM | < 100 nM
15 | COc1cc(N2CCC(N3C[C@@H](C)O[C@@H](C)C3)CC2)ccc1Nc1nccc(-c2c(-c3cccc(C(=O)Nc4c(F)cccc4F)c3)nc3ccccn23)n1 [Example 47, N-(2,6-difluorophenyl)-3-[3-(2-{[4-{4-[(2R,6S)-2,6-dimethyl-4-monpholinyl]-1-piperidinyl}-2-(methyloxy)phenyl]amino}-4-pyrimidinyl)imidazo[1,2-a]pyridin-2-yl]benzamide] | 250 to 1000 nM | < 100 nM | 100 to 500 nM
16 | Cn1cc(-c2cccc(Nc3nccc(-c4c(-c5cccc(C(=O)Nc6c(F)cccc6F)c5)nc5ccccn45)n3)c2)cn1 [Example 11, N-(2,6-difluorophenyl)-3-[3-(2-{[3-(1-methyl-1H-pyrazol-4-yl)phenyl]amino}-4-pyrimidinyl)imidazo[1,2-a]pyridin-2-yl]benzamide] | 250 to 1000 nM | 100 to 500 nM | 100 to 500 nM
